Assay results taken from US20210100905A1, “APPLICATION OF COMPOUND OR TRADITIONAL CHINESE MEDICINE EXTRACT IN PREPARATION OF NUCLEIC ACID DELIVERY AGENT, AND RELATED PRODUCTS” (INSTITUTE OF BASIC MEDICAL SCIENCES CHINESE ACADEMY OF …, priority 2018, published 2021).
“Also recorded” adds a separate entry of the source.

What was measured:
[1] = tested on: A549 cell (human lung adenocarcinoma cell); test: In vitro delivery of lipid nucleic acid mixture, RT-qPCR of intracellular small RNA; assay type: cell-based; conditions: for delivery of HJT-sRNA-m7 double-stranded RNA into A549 cells (real-time PCR): single lipid prepared by boiling or reverse evaporation method, RNA 100 nM, FIGS. 76, 91, 96, 99, 104, 106, 107
Procedure: (§1) 3.1 NCI-N87 cell (gastric cancer cell), MRC-5 cell (lung fibroblast), A549 cell (lung cancer cell) were cultured to logarithmic growth phase, and then plated to a six-well plate at cell density of 1×10^6/2 mL medium/well; MRC-5 cell was cultured in Eagle's MEM medium (MEM, Gibco); A549 cell was cultured in Ham's F-12 medium (HyClone); NCI-N87 cell was cultured in RPMI-1640 medium (HyClone); followed by incubation overnight at 37° C., and the follow-up experiments were performed after the cells were attached to the walls.
(§2) 3.3 After co-incubation with the small RNA for 3 hours, the cells were washed 2-3 times with PBS. The cells were harvested with TRIzol lysis buffer, and the total RNA was extracted. The abundance of small RNA that entered cells was detected by RT-qPCR, and the localization of RNA was detected by fluorescence in situ hybridization; protocols of each detection method were as follows:
(§3) 1) The sRNA was reverse transcribed to cDNA: Reverse Transcription Kit (High-Capacity cDNA Reverse Transcription Kits, Applied Biosystems, cat. No. 4368813) was used to reverse transcribe sRNA into cDNA by stem-loop method, and the reverse transcription system was as follows: RNA template (150 ng/μl) 10 μl, 10×RT buffer, 2.0 μl, 25× dNTP Mix (100 mM) 0.8 μl, U6 RT stem-loop primer 2.0 μl, HJT-sRNA-RT-m7 stem-loop primer 2.0 μl, MultiScribe™ reverse transcriptase 1.0 μl, RNase inhibitor 1.0 μl, nuclease-free H2O 1.2 μl, loaded into a PCR reactor after brief centrifugation, the reaction conditions were as follows: (1) 25° C., 10 min; (2) 37° C., 120 min; (3) 85° C., 5 min; (4) 4° C., termination of the reaction. 20 μl RNase-free ddH2O was added to make up the final volume to 40 μl after the reaction. The stem-loop primer used in the reverse transcription process was synthesized by Beijing Tsingke Biotechnology Co., Ltd.
(§4) 2) Quantitative PCR amplification reaction: the qPCR reaction system has a total volume of 10 μl, containing: 5 μL 2×SYBR Green Master Mix, 0.5 μl forward primer ([…]), 0.5 μl reverse primer (10 μM), 1 μl cDNA by reverse transcription, 3 RNase-free dH2O. LightCycler 480 fluorescence quantitative PCR instrument was used, and the PCR reaction conditions were: 95° C. for 5 min for pre-denaturation, followed by PCR amplification cycle: (1) 95° C., 10 s; (2) 55° C., 10 s; (3) 72° C. , 20 s; a total of 40 cycles; 40° C. for 10 s in the end to cool down. Both the forward and reverse primers of the amplification reaction were designed and synthesized by Beijing Tsingke Biotechnology Co., Ltd.
(§5) 3) The relative expression level was calculated by 2-ΔCt method.
(§6) 100 μl lipid in diethyl ether solution was prepared, and grouped according to the lipid numbers shown in Table 1 (the lipid concentrations are shown in the table below). To the lipid solution was added 20 μl nucleic acid solution (HJT sRNA or siRNA) at the volume ratio of 5:1, and sonicated for after 3 min. The diethyl ether was removed by evaporation at 55° C., and then 100 μl DEPC water was added for hydration to give nucleic acid lipid mixture.
(§7) 100 μL of the nucleic acid solution (HJT sRNA or siRNA) was added to 2-5 μL of the lipid in chloroform (the concentration was shown in Table 1), mixed, and heated at 80-100° C. for 15-30 min to give nucleic acid lipid mixture.
(§8) 3.1.1 MRC-5 cell (pulmonary embryonic fibroblast), A549 cell (human lung adenocarcinoma cell), Caco-2 cell (human colon adenocarcinoma cell) (purchased from the Cell Resource Center of the Institute of Basic Medical Sciences, Chinese Academy of Medical Sciences) were cultured to logarithmic growth phase, then plated into 12-well plates at a cell density of 6×10^5/1 mL medium/well; MRC-5 and Caco-2 cells were cultured in Eagle's MEM medium (MEM, Gibco); A549 cells were cultured in Ham's F-12 medium (HyClone); followed by incubation overnight at 37° C., and the follow-up experiments were performed after the cells were attached to the walls. […]

[2] = In vivo delivery experiment of lipid nucleic acid mixture (Example 13); set-up: species or system C57 mice; conditions: oral administration, 6 hours; for delivery effect into mouse blood and tissues (heart, spleen, kidney or intestine) compared with POPC: FIG. 117a-146b, 100 μg lipid : 1 nmol sRNA; for delivery of small RNA (PGY-sRNA-26) into intestine: 100 μg lipid : 1 nmol sRNA per mouse, 90° C. 15 min
Procedure: 1. Experiment animals: C57 mice, male, approximately 6 weeks old, 20-24g. Mice were raised in the SPF room of the Animal Center of the Institute of Basic Medical Sciences of Chinese Academy of Medical Sciences. The mice were fasted for 12 hours before intragastric administration.
2. Preparation of the mixture of lipid and small RNA: the prepration was conducted on the basis of a dose of 100 μg lipid: lnmol single stranded small RNA PGY-sRNA-26 per mouse as follows: lnmol of each sRNA was dissolved with 500 μl DEPC water in a glass tube, 100 μg corresponding lipid solution No.33, No.35,No.37, No.42, No.43, No.44, No.45, No.46, No.47, No.48, No.49, No.50, No.51, No.52, No.53, No.54, No.55, No.56, No.57, No.58, No.59, No.60, No.61, No.62, No.65, No.66, No.67, No.68, No.69 or No.70 (lipid chloroform solution with a concentration as shown in Table 1-1) was added, pipetted to mix thoroughly. The solution was heated in water bath at 90° C. for 15 min, naturally cooled down, and was administered via gavage.
1) Tissue sampling and extraction of RNA: 6 hours after gavage in mice, 500 μl of blood was taken from the eyeball, and was added 1.5 ml Trizol Reagent LS to thoroughly mix and lyse. Tissue sampling: the mouse was sarcrified by breaking its neck, and the thoracic and abdominal cavities of the mouse was exposed to remove the heart/whole spleen/two kidneys/intestine (5 cm of upper end), which was immediately added 2 ml Trizol Reagent (purchased from Invitrogen) and homogenized until complete lysis with a tissue homogenizer.
(§9) 2) Reverse transcription of sRNA to cDNA: Reverse Transcription Kit (High-Capacity cDNA Reverse Transcription Kits, Applied Biosystems, cat. no. 4368813), was used to reverse transcribe the total RNA to cDNA, and the reverse system was as follows: template RNA (150 ng/μL) 10 μL, 10× RT buffer, 2.0 μL, 25× dNTP Mix (100 mM) 0.8 μL, random primers 2.0 μL, the Multi Scribe™ reverse Transcriptase 1.0 RNase inhibitor 1.0 μL, nuclease-free H2O 3.2 μL. After a brief centrifugation, the reaction was loaded in a PCR reactor. The reaction conditions were as follows: (1) 25° C., 10 min; (2) 37° C., 120 min; (3) 85° C., 5 min; (4) 4° C., termination of the reaction. After the reaction, 20 μL RNase-free ddH2O was added to make up the final volume to 40 μL.
LightCycler 480 fluorescence quantitative PCR instrument was used, and the PCR reaction conditions were: 95° C. , 5 min for pre-denaturation, followed by the PCR amplification cycle: (1) 95° C., 10 s; (2) 55° C., 10 s; (3) 72° C., 20 s; a total of 40 cycles; 40° C. for 10 s in the end to cool down. The forward primer and reverse primer of the amplification reaction were designed and synthesized by Beijing Qing Ke New Industrial Biotechnology Co., Ltd. (U6 F primer: GTGCAGGGTCCGAGGT (SEQ ID NO: 24), PGY-sRNA-26F primer: […] (SEQ ID NO: 34), reverse primer miR all rev: GTGCACGCTCCGAGGT (SEQ ID NO: 26)).
(§10) 3) The relative expression amount was calculated by the 2-ΔCt method.
The data were represented in the form of mean±SEM. The parameter difference between the experimental group and the control group was evaluated by unpaired t test. The data were statistically analyzed by GraphPad Prism software, and P<0.05 was considered statistically significant.

[3] = In vivo delivery of single-stranded sRNA by single lipid, gavage (Example 11); set-up: species or system C57 mice; conditions: FIGS. 108, 112-115; oral (gavage), 10 μL lipid, sRNA 1 nmol each, heating method, 12 hours; vs POPC and Lipofectamine RNAiMAX
Procedure: 1. Experimental animals: C57 mice, male, approximately 6 weeks old.
2. Manufacture of lipid mixture: the prepration was conducted on the basis of a dose of 10 μ1 lipid-1 nmol sRNA per mouse as follows: dissolved 1 nmol of each sRNA in 500 μl DEPC water, added 10 μl of the corresponding lipid, pipette to mix thoroughly, and then naturally cooled down after water bath for 15 min at 90° C., and administered via gavage.
1) Tissue sampling and extraction of RNA: 6 hours after gavage in mice, took 500 μl of blood from the eyeball, added 1.5 ml Trizol Reagent LS to thoroughly mix and lyse, added 3 ml Trizol Reagent (purchased from Invitrogen) to the tissue samples and homogenized until complete lysis. Tissues sampled: live/stomach/small intestine.
as §9, with “Transcriptase 1.0 μL, RNase inhibitor” for “Transcriptase 1.0 RNase inhibitor”
LightCycler 480 fluorescence quantitative PCR instrumentwas used, and the PCR reaction conditions were: 95° C. , 5 min for pre-denaturation, followed by the PCR amplification cycle: (1) 95° C., 10 s; (2) 55° C., 10 s; (3) 72° C., 20 s; a total of 40 cycles; 40° C. for 10 s in the end to cool down. The forward primer and reverse primer of the amplification reaction were designed and synthesized by Beijing Qing Ke New Industrial Biotechnology Co., Ltd. (U6 F primer: GCGCGTCGTGAAGCGTTC (SEQ ID NO: 23), U6 R primer: GTGCAGGGTCCGAGGT (SEQ ID NO: 24)).
as §10
5) Treatment group of single lipid and nucleic acid mixture: a mixture of 10 μL of single lipid (No. 41) with single-stranded sRNA mixure solution (PGY-sRNA-23, PGY-sRNA-26 and PGY-sRNA-32, 1 nmol each) was treated by heating method and then given to mice via intragastric administration.
2. 12 hours after intragastric administration, the blood was taken from the eyeball, and various tissues (liver/stomach/small intestine) was sampled. TRIzol was used for full lysis and the RNA was extracted to detect the amount of entry.

[4] = tested on: MRC-5 cell (lung fibroblast); test: In vitro delivery of lipid nucleic acid mixture, RT-qPCR of intracellular small RNA; assay type: cell-based; conditions: single lipid; boiling method; FIGS. 78, 92, 103
Procedure: as §1, §2, §3, §4, §5, §6, §7, §8

| SMILES | delivery of HJT-sRNA-m7 double-stranded RNA into A549 cells (real-time PCR) [1] | delivery effect into mouse blood and tissues (heart, spleen, kidney or intestine) compared with POPC [2] | delivery of small RNA (PGY-sRNA-26) into intestine [2] | delivery of sRNA single-stranded nucleic acid into mouse blood [3] | delivery of HJT-sRNA-m7 single-stranded RNA into A549 cells (real-time PCR) ([1]; single lipid, boiling method, FIGS. 78, 92, 103) | delivery of HJT-sRNA-m7 single-stranded RNA into MRC-5 cells (real-time PCR) [4] |
| --- | --- | --- | --- | --- | --- | --- |
| CCCCCC/C=C\CCCCCCCC(=O)OC[C@H](COP(=O)(O)OCCN(C)C)OC(=O)CCCCCCC/C=C\CCCCCCCC [No. 62, 1-palmitoleoyl-2-oleoyl-sn-glycero-3-phospho-ethanolamine-N,N-dimethyl] | delivered double-stranded RNA into A549 cells | significantly better than or equivalent to that of POPC | delivers small RNA | – | – | – |
| CCCCCCCCCCCCCCCC(=O)OCC(COP(=O)(O)OCCN)OC(=O)CCCCCCCCCCCCCCC (stereo not shown) [No. 71, 1,2-Dipalmitoyl-sn-Glycero-3-Phosphatidyl-ethanolamine] | – | – | – | could effectively deliver sRNA single-stranded nucleic acid into mouse blood via oral administration; also recorded: the delivery effect was better than POPC and Lipofectamine RNAiMAX | – | – |
| CCCCCC/C=C\CCCCCCCC(=O)OC[C@H](COP(=O)(O)OCCN(C)C)OC(=O)CCCCCCC/C=C\CCCCCC [No. 60, 1,2-dipalmitoleoyl-sn-glycero-3-phospho-ethanolamine-N,N-dimethyl] | delivered double-stranded RNA into A549 cells | significantly better than or equivalent to that of POPC | delivers small RNA | – | – | – |
| CCCCCC/C=C\CCCCCCCC(=O)OC[C@H](COP(=O)(O)OCCN(C)C)OC(=O)CCCCCCCCCCCCC [No. 59, 1-palmitoleoyl-2-myristoyl-sn-glycero-3-phospho-ethanolamine-N,N-dimethyl] | – | significantly better than or equivalent to that of POPC | delivers small RNA | – | – | – |
| CC/C=C\C/C=C\C/C=C\CCCCCCCC(=O)OC[C@@H](O)COP(=O)([O-])OCC[N+](C)(C)C [No. 37, (2-{[(2R)-2-hydroxy-3-[(9Z,12Z,15Z)-octadeca-9,12,15-trienoyloxy]propylphosphonato]oxy}ethyl) trimethylazanium] | – | significantly better than or equivalent to that of POPC | delivers small RNA | – | delivered single-stranded RNA into A549 and MRC-5 cells | delivered single-stranded RNA into A549 and MRC-5 cells |
